Data as given in patent publication US20100179137A1, “PYRIDONE COMPOUND” (priority 2007, published 2010).
pKi: −log10 of the molar value.

System: hindlimb blood flow in anesthetized rat
Assay: Hindlimb blood flow increasing action in anesthetized rat
Type: in vivo
Settings: oral, Wistar male rats
Description: Wistar male rats were used. The test compound was orally administered, and after 2 hours, the hindlimb blood was measured using a laser blood flow imaging apparatus (PIM II, manufactured by Integral Corporation). At 20 minutes before the measurement, 60 mg/kg of pentobarbital was intraperitoneally administered to conduct anesthesia.

| SMILES | lowest effective dose causing a blood flow increasing action of 120% or more [mg/kg] |
| --- | --- |
| COc1cccc(COc2c(Br)cc(Cl)cc2CCc2ccc(C(=O)O)cc2)c1 [4-(2-{3-bromo-5-chloro-2-[(3-methoxybenzyl)oxy]phenyl}ethyl)benzoic acid, reference compound] | 3 |

Molecular target: T1, rat EP4 receptor (Rattus norvegicus, UniProt P43114)
T1 construct: expressed in transfected cells; host or cells: HEK293 cells, transient transfection with Lipofectamine 2000; membrane fraction used
Assay: Evaluation test on EP4 receptor affinity in rat ([3H]PGE2 receptor binding test)
Settings: [3H]PGE2 0.3 nM, membrane fraction of rat EP4 expressing HEK293 cells
Description: A rat EP4 receptor cDNA was subcloned into an expression vector (pcDNA3.1-V5-His-topo, manufactured by Invitrogen Corporation) to prepare a rat EP4 expression vector. HEK293 cells were cultured in a collagen type I-treated 15 cm dish (manufactured by Asahi Techno Glass Co., Ltd.) to a confluence of 70%. An Opti-MEM culture medium at 1.2 mL/dish and a transfection reagent (Lipofectamine 2000, manufactured by Invitrogen Corporation) at 60 μL/dish were mixed, followed by being left to stand at room temperature for 5 minutes. Then, the rat EP4 receptor expression vector at 15 μg/dish was added thereto, followed by being left to stand at room temperature for 30 minutes. The liquid mixture of the transfection reagent was added into the dish, followed by culturing for 20 to 24 hours. The cell culture was carried out in a CO2 incubator (37° C., 5% CO2).
The culture medium was removed by suction, 10 mL of cooled PBS was added thereto per 15 cm dish, and the cells were scraped using a cell scraper. After washed with cooled PBS (1,200 rpm, 4° C., 5 minutes), suspended in 6 mL/dish of cooled 20 mM Tris-HCl (pH 7.4; manufactured by Nacalai Tesque Inc., 5 mM EDTA included) and homogenized using a Polytron, the homogenate was centrifuged (26,000 rpm, 20 minutes, 4° C.). The obtained precipitate was resuspended in cooled 20 mM Tris-HCl and homogenized again using a Polytron, and the homogenate was centrifuged (26,000 rpm, 20 minutes, 4° C.). The obtained precipitate was resuspended in 50 mM HEPES (pH 7.5; manufactured by Dojindo Laboratories) at 1 mL per dish, homogenized using a Polytron, and freeze-stored at −80° C. as a membrane fraction. At this time, a part thereof was used for the measurement of the protein concentration. Measurement of the protein concentration was carried out using a Protein assay stain (manufactured by Bio-Rad Laboratories) in accordance with a standard Protocol as appended in duplicate.
[^3H]PGE2 50 μL (final concentration 0.3 nM; manufactured by Perkin Elmer Co., Ltd.), 100 μL (20 μg/well) of the membrane fraction prepared from the rat EP4 expression cell, and 50 μL of a test compound were mixed in a 96-well microplate (manufactured by Sumitomo Bakelite Co., Ltd.), incubated at room temperature for 1 hour, then filtered by suction on a microplate (UniFilter-96 GF/B, manufactured by Perkin Elmer Co., Ltd.) using a cell harvester (FilterMate Harvester, manufactured by Perkin Elmer Co., Ltd.), and washed three times with 300 μL/well of a cooled assay buffer (50 mM HEPES, 10 mM MgCl2). Dilution of [^3H]PGE2 and the membrane fraction was carried out using the assay buffer, and dilution of the test compound and the unlabeled PGE2 was carried out using dimethyl sulfoxide and the assay buffer. The UniFilter-96 GF/B was treated by preliminarily washing twice with 200 μL/well of the cooled assay buffer. The UniFilter-96 GF/B after filtration was dried in a dryer overnight, 50 μL/well of a liquid scintillation cocktail (MicroScint20, manufactured by Perkin Elmer Co., Ltd.) was added thereto, and the radioactivity was then measured using a liquid scintillation counter for a microplate (TopCount, manufactured by Perkin Elmer Co., Ltd.). For measurement of the non-specific binding, an unlabeled PGE2 (final concentration 1 μM; manufactured by Cayman Chemical Company) was added. All of the measurements were carried out in duplicate, and the specific binding amount was determined by subtracting the non-specific binding amount from the total binding amount.
According to the test method as described above, the rat EP4 receptor affinity (Ki) of the compound of the present invention was measured. […] In addition, Ex means Example Compound No.

T1 sequence (P43114 whole entry): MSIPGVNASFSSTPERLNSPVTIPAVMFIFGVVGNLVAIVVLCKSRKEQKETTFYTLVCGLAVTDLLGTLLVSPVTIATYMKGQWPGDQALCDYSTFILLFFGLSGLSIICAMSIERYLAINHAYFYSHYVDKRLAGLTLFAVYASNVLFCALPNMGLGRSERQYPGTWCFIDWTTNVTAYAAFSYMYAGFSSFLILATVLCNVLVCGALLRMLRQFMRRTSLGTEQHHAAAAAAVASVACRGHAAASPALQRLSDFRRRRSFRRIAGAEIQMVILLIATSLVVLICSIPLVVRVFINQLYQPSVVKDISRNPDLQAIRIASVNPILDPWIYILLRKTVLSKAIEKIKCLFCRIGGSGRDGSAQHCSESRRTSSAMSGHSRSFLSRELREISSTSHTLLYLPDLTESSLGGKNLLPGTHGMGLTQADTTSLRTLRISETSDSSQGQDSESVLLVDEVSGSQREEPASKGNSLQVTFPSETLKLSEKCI

| SMILES | pKi |
| --- | --- |
| COc1cccc(/C=C/c2c(Br)cc(Br)c(=O)n2CCc2ccc(C(=O)O)cc2)c1 [Example 4, 4-(2-{3,5-dibromo-6-[(E)-2-(3-methoxyphenyl)vinyl]-2-oxopyridin-1(2H)-yl}ethyl)benzoic acid] | 8.15 |
| CC(C)Oc1ccccc1OCc1c(Cl)cc(Cl)c(=O)n1CCc1ccc(C(=O)O)cc1 [Example 74] | 8.00 |
| COc1cccc(COc2c(Br)cc(Cl)cc2CCc2ccc(C(=O)O)cc2)c1 [4-(2-{3-bromo-5-chloro-2-[(3-methoxybenzyl)oxy]phenyl}ethyl)benzoic acid, reference compound] | 7.57 |
| CCOc1ccccc1CCc1c(Cl)cc(Cl)c(=O)n1CCc1ccc(C(=O)O)cc1 [Example 90] | 8.21 |
| CC(C)c1cccc(OCc2c(Cl)cc(Cl)c(=O)n2CCc2ccc(C(=O)O)cc2)c1 [Example 1, 4-(2-{3,5-dichloro-6-[(3-isopropylphenoxy)methyl]-2-oxopyridin-1(2H)-yl}ethyl)benzoic acid] | 8.55 |
| CC(C)c1cccc(/C=C/c2c(Cl)cc(Cl)c(=O)n2CCc2ccc(C(=O)O)cc2)c1 [Example 91] | 8.03 |
| COc1cccc(/C=C/c2c(Br)cc(Br)c(=O)n2CCCCCCC(=O)O)c1 [Example 15] | 7.46 |
| COc1cccc(OCc2c(Br)cc(Br)c(=O)n2CCc2ccc(C(=O)O)cc2)c1 [Example 2, 4-(2-{3,5-dibromo-6-[(3-methoxyphenoxy)methyl]-2-oxopyridin-1(2H)-yl}ethyl)benzoic acid] | 7.21 |

The remaining lines, values ahead:

| pKi | SMILES |
| --- | --- |
| 7.72 | O=C(O)c1ccc(CCn2c(CCc3ccccc3OC(F)(F)F)c(Cl)cc(Cl)c2=O)cc1 [Example 350] |
| 7.52 | O=C(O)c1ccc(CCn2c(/C=C/c3ccccc3OC(F)(F)F)c(Cl)cc(Cl)c2=O)cc1 [Example 106] |
| 8.36 | CCc1cccc(/C=C/c2c(Br)ccc(=O)n2CCc2ccc(C(=O)O)cc2)c1 [Example 124] |
| 8.77 | CCCOc1cccc(/C=C/c2c(Cl)cc(Cl)c(=O)n2CCc2ccc(C(=O)O)cc2)c1 [Example 99] |
| 8.31 | O=C(O)c1ccc(CCn2c(/C=C/c3cccc(OC(F)(F)F)c3)c(Cl)ccc2=O)cc1 [Example 126] |
| 8.09 | CCc1cccc(OCc2c(C3CC3)cc(Cl)c(=O)n2CCc2ccc(C(=O)O)cc2)c1 [Example 139] |
| 8.12 | CCc1cccc(/C=C/c2c(Cl)ccc(=O)n2CCc2ccc(C(=O)O)cc2)c1 [Example 125] |
| 8.10 | O=C(O)c1ccc(CCn2c(/C=C/c3cccc(OC(F)(F)F)c3)c(C3CC3)cc(Cl)c2=O)cc1 [Example 120] |
| 8.96 | CCCc1cccc(OCc2c(Cl)cc(Cl)c(=O)n2CCc2ccc(C(=O)O)cc2)c1 [Example 171] |
| 7.92 | O=C(O)c1ccc(CCn2c(CCc3cccc(OC(F)(F)F)c3)c(C3CC3)cc(Cl)c2=O)cc1 [Example 122] |
